From patent US12187717B2, “Compound and use thereof in treating autoimmune diseases” (PARENCHYMA BIOTECH INC., priority 2022, dated 2025)

Key:
[1] = test system: DSS-induced inflammatory bowel disease; test: DSS-induced inflammatory bowel disease model: severity index and colon weight:length ratio; type: in vivo, C57BL/6 mice; conditions: 10 mg/kg oral daily, compared to solvent control
Experimental: On day 0 of the experiment, a 2.0% DSS solution prepared by dissolving DSS (Dextran sulfate sodium, MP biomedicals, Cat No. 160110) in […] was given for drinking to C57BL/6 mice (11 weeks old, female, 20±2 g) for 7 days. The 2.0% DSS solution was changed at an interval of 2 days. Sterile distilled water was provided for drinking from the 8th day of the experiment. Body weight and severity index were measured at an interval of 2 days from the 0th day of the experiment in order to confirm the onset of inflammatory bowel disease.
10 mg/kg of Compound 6 per mouse was completely dissolved in an ethanol-Cremophor EL mixture corresponding to 7.5% (v/v) of the administered dose, and then, was diluted in phosphate buffered saline to prepare the final ethanol:Cremophor EL:phosphate buffered saline (0.375:0.375:9.25, v/v/v), followed by oral administration of 200 μl daily for a total of 14 times from the 1st to 14th days of the experiment. An inflammatory bowel disease severity index was visually observed and recorded at an interval of 2 days according to a severity index system classified into 0 to 10 levels.
Inflammatory bowel disease symptoms were evaluated by summing the scores of three items according to the following items (Table 2).

[2] = test system: Foxp3-expressing regulatory T cells (Treg); test: Production of Foxp3-expressing regulatory T cells from naive CD4 T cells (flow cytometry); type: cell-based, C57BL/6 mice; conditions: 3 days
Experimental: The spleen of C57BL/6 mice (8 to 12 weeks old, female) was excised, pulverized by adding RPMI medium, and then passed through a 40 μm cell strainer (BD Falcon), thereby obtaining a single cell suspension. The single cell suspension was centrifuged (1200 rpm, 5 minutes), and after discarding the supernatant, 1 ml of ACK lysis buffer was added, followed by stirring for 1 minute and then washing the same with RPMI medium. After the single cell suspension was centrifuged, T-cells were separated using a Mouse CD4 Naive T cell Enrichment Kit (Invitrogen). The separated T-cells were prepared by resuspending them in RPMI-fetal bovine serum (FBS) 10%+2-ME (mercaptoethanol) medium at 1×10^6/ml. For T-cell activation, 5 μg/ml anti-CD3 (eBioscience™) was dispensed by 100 μl onto a 96-well plate, reacted in a cell incubator (37° C., 5% CO2 incubator) for 4 hours, and washed with phosphate buffered saline to prepare the plate. The T-cells were dispensed by 200 μl onto the prepared plate, and each well was treated with 2 μg/ml of anti-CD28 (eBioscience™), 2 ng/ml of TGFβ-1 (R&D systems), and 100 U/ml of IL-2. Each 5 μl of Compounds 6 and 9 at a concentration of 2.5 μM diluted in RPMI-fetal bovine serum 10%+2-ME medium was used for treatment, followed by culturing the same in a cell incubator (37° C., 5% CO2 incubator) for 3 days. […]
In order to confirm the expression of Foxp3 protein, the recovered cells were placed in a 5 ml FACS tube (BD Falcon) and washed with 1 ml of phosphate buffered saline. […] The cells were washed twice with the Permeabilization buffer, suspended in 0.3 ml of FACS buffer, and measured by flow cytometry.
The promotion effects of Compound 6 and Comparative Example 1 on the production of “FoxP3-expressing regulatory T cells,” which play an important role in maintaining immune tolerance, were compared (FIG. 24). […] After 3 days, in order to confirm the effects of production of the regulatory T cells, the cultured cells were recovered and Foxp3 protein expression was measured in the same manner as in FIG. 4.

IL-6 = IL-6 production of A549 epithelial cells by IL-1β stimulation; type: cell-based, Human; conditions: A549, 5 μM, 48 hours then IL-1β 24 hours, vs control
Experimental: In order to assess the inhibitory effects of production of IL-6 by the compounds of the present invention prepared as above, an IL-6 production test of epithelial cells by stimulation of IL-1β was performed.
After recovering A549 cells under culture in DMEM-fetal bovine serum (FBS) 10% medium and confirming that the survival rate is 97% or more through trypan blue staining, the recovered product was centrifuged at a speed of 1200 rpm for 5 minutes at room temperature, and the cells were prepared by resuspending them in DMEM-10% fetal bovine serum medium at 1×10^6 cells/3 ml. Thereafter, the cells were dispensed by 3 ml onto a 60 mm plate, and each dish was treated with 50 μl of Compounds 6, 9, 21, 32 and 39 at a concentration of 5 μM diluted in DMEM medium, and then cultured in a cell incubator (5% CO2 incubator) for 48 hours. Then, the cells were treated with 50 μl of human recombinant IL-1β at a concentration of 12.5 ng/ml diluted in DMEM medium, followed by culturing the same in a cell incubator (5% CO2 incubator) for 24 hours. As a control, 50 μl of 0.05% dimethylsulfoxide (DMSO)/DMEM medium was used for treatment.
The cultured cells were recovered to prepare an mRNA sample. […] From the separated RNA, cDNA was synthesized by reverse transcription, and the expression of CYP1A1 was confirmed through a real-time polymerase chain reaction (PCR) using iQ SYBR-Green Supermix (Bio-rad) in a CFX96 (Bio-rad) detection system. […] Herein, one (1) fold was set using the control.
The real-time polymerase chain reaction was performed under the conditions of 45 cycles at an annealing temperature of 58° C., wherein the following primer sequences were used.

CYP2C19 = CYP2C19 (Homo sapiens, UniProt P33261); test: CYP isoenzyme activity; type: in vitro ADME; conditions: 10 μM
Sequence of CYP2C19 (P33261 whole entry): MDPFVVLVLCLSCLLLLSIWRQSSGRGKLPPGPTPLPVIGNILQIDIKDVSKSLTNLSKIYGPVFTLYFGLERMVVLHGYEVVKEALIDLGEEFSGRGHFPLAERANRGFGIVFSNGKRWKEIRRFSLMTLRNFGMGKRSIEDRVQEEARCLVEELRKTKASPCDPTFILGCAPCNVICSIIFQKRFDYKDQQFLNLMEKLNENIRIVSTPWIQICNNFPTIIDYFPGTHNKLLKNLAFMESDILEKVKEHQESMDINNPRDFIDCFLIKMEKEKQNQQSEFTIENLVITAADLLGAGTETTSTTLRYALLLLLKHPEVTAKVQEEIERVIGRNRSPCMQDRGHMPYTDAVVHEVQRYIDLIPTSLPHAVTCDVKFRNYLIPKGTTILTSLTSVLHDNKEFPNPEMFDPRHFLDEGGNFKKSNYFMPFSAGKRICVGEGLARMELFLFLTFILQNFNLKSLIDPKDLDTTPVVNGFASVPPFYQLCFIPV

CYP2C19 activity (CYP2C19): 93.1 % of Control Activity
inhibition of the enzyme activity of CYP2C19 (CYP2C19): little effect
SMILES: O=C(Cc1c[nH]c2ccc(Cl)cc12)Nc1nc2ccc(N3CCOCC3)cc2s1 [Compound 6, 2-(5-chloro-1H-indol-3-yl)-N-(6-morpholinobenzo[d]thiazol-2-yl)acetamide]
inflammatory bowel disease severity index ([1]; 10th day): statistically significant therapeutic effects
colon weight:length ratio ([1]; 15th day): significantly suppressed
production of Foxp3-expressing regulatory T cells ([2]; 2.5 μM and 5 μM, compared to Comparative Example 1): significantly increased
production of Foxp3-expressing regulatory T cells ([2]; 2.5 μM, compared to Vehicle): markedly increased
IL-6 production of A549 by IL-1β stimulation (IL-6): significantly reduced
